Structures are written as SMILES.

For orientation: melting point means the temperature, or range, at which the solid turns liquid. On to `Cc1nnc(-c2ccccc2F)n2nc(OCc3ncnn3C)c(-c3ccsc3)c12`, for which the melting point was 124 to 129 °C. Take `Cc1nnc(-c2ccccc2F)n2nc(OCc3ncnn3C)c(-c3ccoc3)c12`: the melting point lay in the range of 150 to 153 °C. Next, `Cc1nnc(-c2ccccc2F)n2nc(OCc3ncn(C)n3)c(-c3ccsc3)c12`: 214 to 217 °C; `Cc1nnc(-c2ccc(F)cc2)n2nc(OCc3ncnn3C)c(-c3ccsc3)c12`: 171 to 177 °C; `Cc1nnc(-c2ccc(F)cc2F)n2nc(OCc3ncnn3C)c(-c3ccsc3)c12`: 144 to 146 °C. The same measure for `CCn1ncnc1COc1nn2c(-c3ccccc3F)nnc(C)c2c1C1CCCC1`: 105 °C. The same measure for `Cc1nnc(-c2ccccc2F)n2nc(OCc3ncnn3C)c(C3CCCC3)c12`: 123 °C. For `CCn1ncnc1COc1nn2c(-c3ccccc3)nnc(C)c2c1C1CCCC1`, the melting point stood at 112 °C. `Cc1nnc(-c2ccccc2)n2nc(OCc3ncnn3C)c(C3CCCC3)c12`: the melting point turned out to be 159 °C. Next, `CCn1ncnc1COc1nn2c(-c3cc(F)ccc3F)nnc(C)c2c1C(C)(C)C`: 109 °C.
